What is called IC50 is the concentration that inhibits the measured activity by half. By IC90 is commonly meant the point of the concentration-response curve where the effect stands at 90%.

39 molecules from ChEMBL document CHEMBL4483862, “Open-source discovery of chemical leads for next-generation chemoprotective antimalarials” (2018) can be followed below.

The subject of this assay is Plasmodium berghei. The assay is described as follows: Luciferase/luciferin-expressing antifolate-resistant parasites were used to infect a culture of HepG2 cells that were pre-incubated with compounds. Infected hepatocytes emit light due to the luciferase reaction. Assay results are presented as the percent inhibition of light emission compared to control. […]. The assay is classed as functional. The settings on record: sporozoite; for IC90: read-out: LUCIFERASE INFECTION ASSAY - IC90.

The mark [1] stands for this setting: read-out: LUCIFERASE INFECTION ASSAY - IC50.

With `COc1ccc(-c2nnc(SC(C)C(=O)NCCC3=CCCCC3)[nH]2)cc1` (stereo not drawn), the IC90 was found to be 0.379 µM. Further, the IC50 (HEPG2TOX_HILL_SLOPE 1.28, HEPG2TOX_R_SQUARED 0.906, PBLUC_HILL_SLOPE 22.1, PBLUC_R_SQUARED 0.622, read-out: LUCIFERASE INFECTION ASSAY - IC50) was 0.343 µM.

In the case of `Cc1nn(-c2ccccc2C(F)(F)F)c2nc(-c3ccccc3)cc(C(=O)N3CCCC(C)C3)c12` (stereo not drawn), the IC90 is > 10 µM. Moreover, the IC50 (PBLUC_HILL_SLOPE 14.7, PBLUC_R_SQUARED 0.435, read-out: LUCIFERASE INFECTION ASSAY - IC50) is 9.53 µM.

Regarding `O=C(Nc1nonc1-c1ccc(F)cc1)c1ccc(Br)cc1`, the IC90 was 3.92 µM. The IC50 (HEPG2TOX_HILL_SLOPE 9.79, HEPG2TOX_R_SQUARED 0.939, PBLUC_HILL_SLOPE 11.2, PBLUC_R_SQUARED 0.415, read-out: LUCIFERASE INFECTION ASSAY - IC50) was 3.22 µM.

With `CCCn1c(NC(=O)c2ccc(S(=O)(=O)N3CC(C)OC(C)C3)cc2)nc2ccccc21` (stereo not drawn), the IC90 came out at 5.08 µM. For the same molecule, under “HEPG2TOX_HILL_SLOPE 9.83, HEPG2TOX_R_SQUARED 0.869, PBLUC_HILL_SLOPE 10.1, PBLUC_R_SQUARED 0.696, read-out: LUCIFERASE INFECTION ASSAY - IC50”, the IC50 was found to be 4.09 µM.

On to `CC(C(=O)Nc1ccc(S(=O)(=O)N2CCCC2)cc1)N1CCC(CCc2ccc(O)cc2)CC1` (stereo not drawn), for which the IC90 is > 10 µM. Further, the IC50 (FFLUC_HILL_SLOPE 12.4, FFLUC_R_SQUARED 0.343, PBLUC_HILL_SLOPE 0.669, PBLUC_R_SQUARED 0.407, read-out: LUCIFERASE INFECTION ASSAY - IC50) was > 10 µM.

Consider `Oc1ccc(/C=N/n2c(-c3ccco3)cs/c2=N\c2ccc(F)cc2F)c(O)c1`, for which the IC90 is > 10 µM. Moreover, the IC50 (PBLUC_HILL_SLOPE 8.45, PBLUC_R_SQUARED 0.234, read-out: LUCIFERASE INFECTION ASSAY - IC50) is 8.99 µM.

Regarding `COc1ccc(Nc2ncnc3scc(-c4ccc(OC)cc4)c23)cc1`, the IC90 was found to be 4.29 µM. Further, under setting [1], the IC50 stood at 2.65 µM.

Regarding `CCOC(=O)c1c[nH]c2ccc(OC(F)(F)F)cc2c1=O`, the IC90 was > 11 µM. Also, under setting [1], the IC50 was > 11 µM.

On to `CC(C)C(=O)N1CCN(c2nc(CSc3ccccc3)nc3sc4c(c23)CCCC4)CC1`, for which the IC90 was > 10 µM. Also, the IC50 (PBLUC_HILL_SLOPE 15.3, PBLUC_R_SQUARED 0.212, read-out: LUCIFERASE INFECTION ASSAY - IC50) was found to be 8.67 µM.

As to `CCCNC(=O)c1c(NC(=O)c2ccc(C(F)(F)F)cc2)nc2ccccn12`, the IC90 amounted to 0.441 µM. Further, the IC50 (FFLUC_HILL_SLOPE 16.1, FFLUC_R_SQUARED 0.832, HEPG2TOX_HILL_SLOPE 0.765, HEPG2TOX_R_SQUARED 0.858, PBLUC_HILL_SLOPE 8.91, PBLUC_R_SQUARED 0.524, read-out: LUCIFERASE INFECTION ASSAY - IC50) came to 0.344 µM.

On to `Cc1ccc(NC(=S)Nc2ccc(Cl)cc2)cc1F`, for which the IC90 is > 11.2 µM. Besides, the IC50 under setting [1] was > 11.2 µM.

As for `Nc1c(C(=O)c2ccccc2O)cnn1-c1ccccc1C(F)(F)F`, the IC90 stood at 3.04 µM. The IC50 (FFLUC_HILL_SLOPE 18.9, FFLUC_R_SQUARED 0.573, PBLUC_HILL_SLOPE 1.34, PBLUC_R_SQUARED 0.647, read-out: LUCIFERASE INFECTION ASSAY - IC50) is 0.594 µM.

Take `CCOC(=O)c1sc(N2CCCC2)c2c1CC(C)(C)CC2=O`: the IC90 was > 10.3 µM. Also, under setting [1], the IC50 was > 10.3 µM.

`C=C(C)CN(CC)c1nc(N)c(C#N)c(C(C#N)Cc2ccc(C)cc2)c1C#N` (stereo not drawn): the IC90 came to 8.18 µM. For the same molecule, the IC50 (HEPG2TOX_HILL_SLOPE 73.4, HEPG2TOX_R_SQUARED 0.557, PBLUC_HILL_SLOPE 3.82, PBLUC_R_SQUARED 0.311, read-out: LUCIFERASE INFECTION ASSAY - IC50) came to 4.6 µM.

`COc1ccc(NC2=NC(=O)/C(=C/c3cc(C)n(-c4cccc(Cl)c4Cl)c3C)S2)cc1`: the IC90 turned out to be 0.771 µM. Also, under “PBLUC_HILL_SLOPE 2.19, 1.56, PBLUC_R_SQUARED 0.711, 0.979, read-out: LUCIFERASE INFECTION ASSAY - IC50”, the IC50 was 0.238 µM.

In the case of `Cc1ccc(-c2nnc(NC(=O)c3cccc(S(=O)(=O)N4CCc5ccccc54)c3)[nH]2)cc1`, the IC90 is > 10 µM. The IC50 under setting [1] came out at 8.49 µM.

For `COc1ccc(-n2cc(-c3ccccc3)c3c(NCc4cccnc4)ncnc32)cc1`, the IC90 is > 10 µM. In addition, under setting [1], the IC50 was > 10 µM.

For `Cc1cc(C(=O)COc2ccccc2C(N)=O)c(C)n1C(C)c1ccccc1` (stereo not drawn), the IC90 was > 10 µM. The IC50 (HEPG2TOX_HILL_SLOPE 1.33, HEPG2TOX_R_SQUARED 0.859, PBLUC_HILL_SLOPE 2.23, PBLUC_R_SQUARED 0.779, read-out: LUCIFERASE INFECTION ASSAY - IC50) was 4.55 µM.

Consider `COc1ccccc1NC(=O)Nc1nc(C(N)CCc2ccccc2)cs1` (stereo not drawn), for which the IC90 was > 8.63 µM. Further, under “PBLUC_HILL_SLOPE 2.77, PBLUC_R_SQUARED 0.721, read-out: LUCIFERASE INFECTION ASSAY - IC50”, the IC50 was 5.07 µM.

For the molecule `CN1CCC2(CC1)CC(Nc1ccc(C(F)(F)F)cc1[N+](=O)[O-])c1ccccc1O2` (stereo not drawn), the IC90 is > 10 µM. Besides, the IC50 (PBLUC_HILL_SLOPE 1.75, PBLUC_R_SQUARED 0.131, read-out: LUCIFERASE INFECTION ASSAY - IC50) was > 10 µM.

In the case of `Cc1cc(C(C)(C)C)cc(C)c1COC(=O)c1cccnc1`, the IC90 was > 10 µM. For the same molecule, the IC50 (HEPG2TOX_HILL_SLOPE 2.37, HEPG2TOX_R_SQUARED 0.0156, PBLUC_HILL_SLOPE 8.85, PBLUC_R_SQUARED 0.304, read-out: LUCIFERASE INFECTION ASSAY - IC50) was determined as 8.03 µM.

For the molecule `CC(C)(C)Nc1ccn2nc(-c3ccco3)cc2n1`, the IC90 is > 12.9 µM. Moreover, the IC50 (PBLUC_HILL_SLOPE 2.89, PBLUC_R_SQUARED 0.538, read-out: LUCIFERASE INFECTION ASSAY - IC50) amounted to 8.49 µM.

Regarding `NC(=O)c1ccc(N2CCNCC2)nc1`, the IC90 is > 10 µM. Moreover, the IC50 under setting [1] was > 10 µM.

As to `CCc1c(C(=O)/C=C/c2cccc(C#N)c2)oc2ccccc12`, the concentration for an effect of 90% (IC90) came out at 9.02 µM. The IC50 (FFLUC_HILL_SLOPE 2.17, FFLUC_R_SQUARED 0.174, HEPG2TOX_HILL_SLOPE 14.7, HEPG2TOX_R_SQUARED 0.793, PBLUC_HILL_SLOPE 2.78, PBLUC_R_SQUARED 0.439, read-out: LUCIFERASE INFECTION ASSAY - IC50) was 4.09 µM.

On to `Cc1nn2c(=O)cc(Cn3ccnc3)nc2s1`, for which the IC90 was > 10 µM. For the same molecule, the IC50 under setting [1] is > 10 µM.

Take `CN1CCN(S(=O)(=O)c2ccc(SCC3CCCCC3)nc2)CC1`: the IC90 is > 10 µM. In addition, under setting [1], the IC50 is > 10 µM.

In the case of `CCCCNCCCCOc1ccc(C)cc1C(C)(C)C`, the 90% effect concentration (IC90) is > 10 µM. The IC50 (PBLUC_HILL_SLOPE 18.2, PBLUC_R_SQUARED 0.163, read-out: LUCIFERASE INFECTION ASSAY - IC50) was 8.89 µM.

For the molecule `O=C(Nc1cccc2c[nH]nc12)c1ccc(Oc2ccccc2)cc1`, the IC90 is > 10 µM. Also, under “PBLUC_HILL_SLOPE 18.4, PBLUC_R_SQUARED 0.556, read-out: LUCIFERASE INFECTION ASSAY - IC50”, the IC50 was 9.05 µM.

Regarding `O=C(Nc1ccc2c(c1)OCO2)c1csc(C(O)c2cccc(C(F)(F)F)c2)n1` (stereo not drawn), the IC90 is > 10 µM. Further, the IC50 under setting [1] is > 10 µM.

As to `O=C(N/N=C1\CCCCc2ccccc21)c1cc2ccccc2cc1O`, the IC90 is > 10 µM. Further, for the setting “HEPG2TOX_HILL_SLOPE 7.95, HEPG2TOX_R_SQUARED 0.651, read-out: LUCIFERASE INFECTION ASSAY - IC50”, the IC50 was > 10 µM.

Consider `COc1cncc(-c2cc(Nc3ccc(Oc4ccccc4)cc3)ncn2)c1`, for which the concentration for an effect of 90% (IC90) was > 8.91 µM. The IC50 (PBLUC_HILL_SLOPE 10.3, PBLUC_R_SQUARED 0.501, read-out: LUCIFERASE INFECTION ASSAY - IC50) was 7.76 µM.

For `COc1cc(C(O)(c2nc3ccccc3s2)C(F)(F)F)c(OC)cc1N` (stereo not drawn), the IC90 was > 10 µM. In addition, under “HEPG2TOX_HILL_SLOPE 2.34, HEPG2TOX_R_SQUARED 0.875, PBLUC_HILL_SLOPE 2.52, PBLUC_R_SQUARED 0.408, read-out: LUCIFERASE INFECTION ASSAY - IC50”, the 50% inhibitory concentration (IC50) came to 6.31 µM.

With `O=c1c2ccc(Cl)cc2nc(-c2cccc(C(F)(F)F)c2)n1O`, the IC90 is > 9.69 µM. For the same molecule, the IC50 under setting [1] was > 9.69 µM.

On to `Cc1csc(Sc2ncnc3c2cnn3C)n1`, for which the IC90 is > 2 µM. Under setting [1], the IC50 was > 2 µM.

In the case of `O=C1N/C(=N\C2CCCC2)S/C1=C\c1ccc2c(c1)OCCO2`, the IC90 was 7.77 µM. Moreover, the half-maximal inhibitory concentration (IC50) (HEPG2TOX_HILL_SLOPE 6.25, HEPG2TOX_R_SQUARED 0.845, PBLUC_HILL_SLOPE 2.64, PBLUC_R_SQUARED 0.759, read-out: LUCIFERASE INFECTION ASSAY - IC50) is 3.38 µM.

Take `Cc1c(C(=O)Nc2cccc(Oc3ccccc3)c2)sc(=O)n1Cc1ccncc1`: the concentration for an effect of 90% (IC90) was > 7.9 µM. For the same molecule, under setting [1], the IC50 is > 7.9 µM.

Regarding `O=C(Nc1nc(-c2cccs2)cs1)c1cc(-c2ccccc2)nn1-c1ccccc1`, the IC90 is > 10 µM. Also, the IC50 (FFLUC_HILL_SLOPE 3.07, FFLUC_R_SQUARED 0.622, PBLUC_HILL_SLOPE 1.11, PBLUC_R_SQUARED 0.202, read-out: LUCIFERASE INFECTION ASSAY - IC50) was > 10 µM.

`O=C(/C(=C/c1ccc(N2CCOCC2)cc1)c1nc2ccccc2[nH]1)c1cccc(Cl)c1`: the IC90 was > 10 µM. For the same molecule, the IC50 under setting [1] is > 10 µM.

Take `Cc1ccc2nc(NC(=O)c3cccc(F)c3)c(C(=O)NC3CCCCC3)n2c1`: the IC90 is 0.924 µM. Moreover, the IC50 (HEPG2TOX_HILL_SLOPE 1.74, HEPG2TOX_R_SQUARED 0.865, PBLUC_HILL_SLOPE 15.6, PBLUC_R_SQUARED 0.75, read-out: LUCIFERASE INFECTION ASSAY - IC50) came to 0.803 µM.
